Assays:
[1] = tested on: TRZAWR (Wheat, Winter, cv Riband); assay: Postemergence herbicidal evaluation; assay type: in vivo, Triticum aestivum; conditions: for TRZAWR herbicidal rating: postemergence
Procedure, shortened: (§1)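 Visual 0–9 injury scores versus control plants, covering stand, vigour, malformation, size, chlorosis and general appearance, taken four to five weeks post-spray and averaged over replicate tests. Plants were sprayed at roughly two weeks old and held on greenhouse benches.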

ZEAMX (Corn, Field) = assay: Preemergence herbicidal evaluation; assay type: in vivo, Zea mays, L.; conditions: rated 4-5 weeks after treatment
[2] = tested on: TRZAWR (Wheat, Winter, cv Riband); assay: Preemergence herbicidal evaluation; assay type: in vivo, Triticum aestivum; conditions: rated 4-5 weeks after treatment
Procedure, shortened: (§2)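 Steps: mix seeds with potting soil; plant on ~1 inch soil per cup; spray compound in aqueous acetone; hold on greenhouse benches with routine watering; rate 0–9 visually against control at 4–5 weeks.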

[3] = tested on: ABUTH (Abutilon theophrasti); assay: Preemergence herbicidal evaluation; assay type: in vivo, Medic.; conditions: rated 4-5 weeks after treatment
GALAP (Galium aparine) = assay: Preemergence herbicidal evaluation; assay type: in vivo; conditions: rated 4-5 weeks after treatment
Procedure, shortened: as §2

[4] = tested on: AMBEL (Ambrosia artemisifolia); assay: Postemergence herbicidal evaluation; assay type: in vivo, L.; conditions: for AMBEL herbicidal rating: postemergence
Procedure, shortened: as §1

[5] = tested on: CHEAL (Chenopodium album); assay: Postemergence herbicidal evaluation; assay type: in vivo, L.; conditions: for CHEAL herbicidal rating: postemergence
Procedure, shortened: as §1

[6] = tested on: CASOB (Cassia obtusifolia); assay: Postemergence herbicidal evaluation; assay type: in vivo, L.; conditions: for CASOB herbicidal rating: postemergence
Procedure, shortened: as §1

[7] = tested on: GLXMAW (Soybean, Williams); assay: Preemergence herbicidal evaluation; assay type: in vivo, Glycine max, (L.) Merr. cv Williams; conditions: rated 4-5 weeks after treatment

In the case of `C=C1COC(c2nsc3ccc(-n4c(=O)cc(C(F)(F)F)n(C)c4=O)cc23)OC1` [Compound 58, 2,4(1H,3H)-pyrimidinedione, 1-methyl-3-[3-(5-methylene-m-dioxan-2-yl)-1,2-benzisothiazol-5-yl]-6-(trifluoromethyl)-], the TRZAWR herbicidal rating ([1]; rate 0.0320 kg/ha) is reported as 4.0, the TRZAWR herbicidal rating ([1]; rate 0.0620 kg/ha) is reported as 4.5 and the “Preemergence herbicidal rating ZEAMX” value (ZEAMX (Corn, Field); Rate 0.0620 kg/ha) is reported as 8.0. For the same compound, the “Preemergence herbicidal rating ZEAMX” value (ZEAMX (Corn, Field); Rate 0.1250 kg/ha) was 9.0, the “Preemergence herbicidal rating ZEAMX” value (ZEAMX (Corn, Field); Rate 0.2500 kg/ha) was 9.0 and the “Preemergence herbicidal rating TRZAWR” value ([2]; Rate 0.0620 kg/ha) was 7.0. For the same compound, the “Preemergence herbicidal rating TRZAWR” value ([2]; Rate 0.1250 kg/ha) was 8.0, the “Preemergence herbicidal rating TRZAWR” value ([2]; Rate 0.2500 kg/ha) was 8.0 and the “Preemergence herbicidal rating ABUTH” value ([3]; Rate 0.0620 kg/ha) was 9.0. The “Preemergence herbicidal rating ABUTH” value ([3]; Rate 0.1250 kg/ha) was 9.0, the “Preemergence herbicidal rating ABUTH” value ([3]; Rate 0.2500 kg/ha) was 9.0 and the “Preemergence herbicidal rating GALAP” value (GALAP (Galium aparine); Rate 0.0620 kg/ha) was 9.0. For the same compound, the “Preemergence herbicidal rating GALAP” value (GALAP (Galium aparine); Rate 0.1250 kg/ha) was 9.0, the “Preemergence herbicidal rating GALAP” value (GALAP (Galium aparine); Rate 0.2500 kg/ha) was 9.0 and the AMBEL herbicidal rating ([4]; rate 0.0320 kg/ha) was 9.0. It also gave an AMBEL herbicidal rating ([4]; rate 0.0620 kg/ha) of 9.0, a CHEAL herbicidal rating ([5]; rate 0.0320 kg/ha) of 3.0 and a CHEAL herbicidal rating ([5]; rate 0.0620 kg/ha) of 5.0. The CASOB herbicidal rating ([6]; rate 0.0320 kg/ha) was 1.0, the CASOB herbicidal rating ([6]; rate 0.0620 kg/ha) was 8.0 and the “Preemergence herbicidal rating GLXMAW” value ([7]; Rate 0.0620 kg/ha) was 9.0. The “Preemergence herbicidal rating GLXMAW” value ([7]; Rate 0.1250 kg/ha) was 8.0 and the “Preemergence herbicidal rating GLXMAW” value ([7]; Rate 0.2500 kg/ha) was 9.0.
`COCC1COC(c2nsc3ccc(-n4c(=O)cc(C(F)(F)F)n(C)c4=O)cc23)O1` (stereo not shown) [Compound 64, 3-[3-[4-(methoxymethyl)-1,3-dioxolan-2-yl]-1,2-benzisothiazol-5-yl]-1-methyl-6-(trifluoromethyl)uracil] was tested, and the TRZAWR herbicidal rating ([1]; rate 0.0320 kg/ha) was 4.0, the TRZAWR herbicidal rating ([1]; rate 0.0620 kg/ha) was 5.0 and the “Preemergence herbicidal rating ZEAMX” value (ZEAMX (Corn, Field); Rate 0.0620 kg/ha) was 8.5. The “Preemergence herbicidal rating ZEAMX” value (ZEAMX (Corn, Field); Rate 0.1250 kg/ha) was 9.0, the “Preemergence herbicidal rating ZEAMX” value (ZEAMX (Corn, Field); Rate 0.2500 kg/ha) was 9.0 and the “Preemergence herbicidal rating TRZAWR” value ([2]; Rate 0.0620 kg/ha) was 9.0. For the same compound, the “Preemergence herbicidal rating TRZAWR” value ([2]; Rate 0.1250 kg/ha) was 9.0, the “Preemergence herbicidal rating TRZAWR” value ([2]; Rate 0.2500 kg/ha) was 9.0 and the “Preemergence herbicidal rating ABUTH” value ([3]; Rate 0.0620 kg/ha) was 9.0. For the same compound, the “Preemergence herbicidal rating ABUTH” value ([3]; Rate 0.1250 kg/ha) was 9.0, the “Preemergence herbicidal rating ABUTH” value ([3]; Rate 0.2500 kg/ha) was 9.0 and the “Preemergence herbicidal rating GALAP” value (GALAP (Galium aparine); Rate 0.0620 kg/ha) was 9.0. The “Preemergence herbicidal rating GALAP” value (GALAP (Galium aparine); Rate 0.1250 kg/ha) was 9.0, the “Preemergence herbicidal rating GALAP” value (GALAP (Galium aparine); Rate 0.2500 kg/ha) was 9.0 and the AMBEL herbicidal rating ([4]; rate 0.0320 kg/ha) was 9.0. It also gave an AMBEL herbicidal rating ([4]; rate 0.0620 kg/ha) of 9.0, a CHEAL herbicidal rating ([5]; rate 0.0320 kg/ha) of 9.0 and a CHEAL herbicidal rating ([5]; rate 0.0620 kg/ha) of 9.0. The CASOB herbicidal rating ([6]; rate 0.0320 kg/ha) was 4.0, the CASOB herbicidal rating ([6]; rate 0.0620 kg/ha) was 5.0 and the “Preemergence herbicidal rating GLXMAW” value ([7]; Rate 0.0620 kg/ha) was 9.0. For the same compound, the “Preemergence herbicidal rating GLXMAW” value ([7]; Rate 0.1250 kg/ha) was 9.0 and the “Preemergence herbicidal rating GLXMAW” value ([7]; Rate 0.2500 kg/ha) was 9.0.
`Cn1c(C(F)(F)F)cc(=O)n(-c2ccc3snc(-c4ccccn4)c3c2)c1=O` [Compound 9, 1-methyl-3-[3-(2-pyridyl)-1,2-benzisothiazol-5-yl]-6-(trifluoromethyl)uracil] was tested, and the “Postemergence herbicidal rating, TRZAWR” value ([1]; rate 0.0320 kg/ha) was 4.0, the “Postemergence herbicidal rating, TRZAWR” value ([1]; rate 0.0620 kg/ha) was 4.5 and the “Postemergence herbicidal rating, TRZAWR” value ([1]; rate 0.1250 kg/ha) was 6.0. The “ZEAMX preemergence herbicidal rating” value (ZEAMX (Corn, Field); Rate 0.0620 kg/ha) was 6.3, the “ZEAMX preemergence herbicidal rating” value (ZEAMX (Corn, Field); Rate 0.1250 kg/ha) was 6.7 and the “ZEAMX preemergence herbicidal rating” value (ZEAMX (Corn, Field); Rate 0.2500 kg/ha) was 7.7. The “TRZAWR preemergence herbicidal rating” value ([2]; Rate 0.0620 kg/ha) was 5.5, the “TRZAWR preemergence herbicidal rating” value ([2]; Rate 0.1250 kg/ha) was 7.5 and the “TRZAWR preemergence herbicidal rating” value ([2]; Rate 0.2500 kg/ha) was 8.5. For the same compound, the “ABUTH preemergence herbicidal rating” value ([3]; Rate 0.0620 kg/ha) was 9.0, the “ABUTH preemergence herbicidal rating” value ([3]; Rate 0.1250 kg/ha) was 9.0 and the “ABUTH preemergence herbicidal rating” value ([3]; Rate 0.2500 kg/ha) was 9.0. For the same compound, the “GALAP preemergence herbicidal rating” value (GALAP (Galium aparine); Rate 0.0620 kg/ha) was 1.5, the “GALAP preemergence herbicidal rating” value (GALAP (Galium aparine); Rate 0.1250 kg/ha) was 3.0 and the “GALAP preemergence herbicidal rating” value (GALAP (Galium aparine); Rate 0.2500 kg/ha) was 7.0. For the same compound, the “Postemergence herbicidal rating, AMBEL” value ([4]; rate 0.0320 kg/ha) was 9.0, the “Postemergence herbicidal rating, AMBEL” value ([4]; rate 0.0620 kg/ha) was 9.0 and the “Postemergence herbicidal rating, AMBEL” value ([4]; rate 0.1250 kg/ha) was 9.0. The “Postemergence herbicidal rating, CHEAL” value ([5]; rate 0.0320 kg/ha) was 9.0, the “Postemergence herbicidal rating, CHEAL” value ([5]; rate 0.0620 kg/ha) was 9.0 and the “Postemergence herbicidal rating, CHEAL” value ([5]; rate 0.1250 kg/ha) was 9.0. The “Postemergence herbicidal rating, CASOB” value ([6]; rate 0.0320 kg/ha) was 6.5, the “Postemergence herbicidal rating, CASOB” value ([6]; rate 0.0620 kg/ha) was 8.0 and the “Postemergence herbicidal rating, CASOB” value ([6]; rate 0.1250 kg/ha) was 9.0. The “GLXMAW preemergence herbicidal rating” value ([7]; Rate 0.0620 kg/ha) was 4.0, the “GLXMAW preemergence herbicidal rating” value ([7]; Rate 0.1250 kg/ha) was 8.3 and the “GLXMAW preemergence herbicidal rating” value ([7]; Rate 0.2500 kg/ha) was 8.7.

— US6706663B2, “Herbicidal 3-heterocyclic substituted benzisothiazole and benzisoxazole compounds” (Wyeth, priority 2000, dated 2004)
